# System: Hs578T multi-cell spheroids, viability
# Assay: Anticancer human tumor Hs578T cell line growth inhibition [IpAb];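 note: drug exposure lasted 7 days before readout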
# Conditions: for IC50: curve of first compound; for viability, T/C: stronger effect = lower value
# In short: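 Spheroids of 60% malignant cells, 25% HUVEC and 15% MSC were exposed to targeted agents combined with ipatasertib or abemaciclib. Doses started at or near clinical Cmax (10 microM when unknown) and fell in half-log steps.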
structure (smiles),measurement,setting,value
C=CC(=O)N1CCN(c2nc(=O)n(-c3c(C)ccnc3C(C)C)c3nc(-c4c(O)cccc4F)c(F)cc23)C(C)C1 (stereo not given) + CC(C)NCC(C(=O)N1CCN(c2ncnc3c2C(C)CC3O)CC1)c1ccc(Cl)cc1,IC50,second compound 0.1 µM,> 10000 nM
same,IC50,second compound 0.316 µM,> 10000 nM
same,IC50,second compound 1 µM,> 10000 nM
same,IC50,second compound 3.16 µM,3950 nM
same,IC50,second compound 10 µM,< 31.6 nM
same,"viability, T/C","second compound 0.1 µM, first compound 0.0316 µM",94.2%
same,"viability, T/C","second compound 0.1 µM, first compound 0.1 µM",103%
same,"viability, T/C","second compound 0.1 µM, first compound 0.316 µM",102%
same,"viability, T/C","second compound 0.1 µM, first compound 1 µM",112%
same,"viability, T/C","second compound 0.1 µM, first compound 3.16 µM",94.4%
same,"viability, T/C","second compound 0.1 µM, first compound 10 µM",72%
same,"viability, T/C","second compound 0.316 µM, first compound 0.0316 µM",83.7%
same,"viability, T/C","second compound 0.316 µM, first compound 0.1 µM",90.6%
same,"viability, T/C","second compound 0.316 µM, first compound 0.316 µM",90.1%
same,"viability, T/C","second compound 0.316 µM, first compound 1 µM",89.5%
same,"viability, T/C","second compound 0.316 µM, first compound 3.16 µM",84%
same,"viability, T/C","second compound 0.316 µM, first compound 10 µM",65.5%
same,"viability, T/C","second compound 1 µM, first compound 0.0316 µM",70.8%
same,"viability, T/C","second compound 1 µM, first compound 0.1 µM",70.9%
same,"viability, T/C","second compound 1 µM, first compound 0.316 µM",69.3%
same,"viability, T/C","second compound 1 µM, first compound 1 µM",75.1%
same,"viability, T/C","second compound 1 µM, first compound 3.16 µM",66.2%
same,"viability, T/C","second compound 1 µM, first compound 10 µM",55.1%
same,"viability, T/C","second compound 3.16 µM, first compound 0.0316 µM",56.7%
same,"viability, T/C","second compound 3.16 µM, first compound 0.1 µM",59.6%
same,"viability, T/C","second compound 3.16 µM, first compound 0.316 µM",55.1%
same,"viability, T/C","second compound 3.16 µM, first compound 1 µM",54.5%
same,"viability, T/C","second compound 3.16 µM, first compound 3.16 µM",52.8%
same,"viability, T/C","second compound 3.16 µM, first compound 10 µM",41.9%
same,"viability, T/C","second compound 10 µM, first compound 0.0316 µM",45.1%
same,"viability, T/C","second compound 10 µM, first compound 0.1 µM",50.4%
same,"viability, T/C","second compound 10 µM, first compound 0.316 µM",46.9%
same,"viability, T/C","second compound 10 µM, first compound 1 µM",49.1%
same,"viability, T/C","second compound 10 µM, first compound 3.16 µM",46.5%
same,"viability, T/C","second compound 10 µM, first compound 10 µM",20.4%
CC(=O)c1c(C)c2cnc(Nc3ccc(N4CCNCC4)cn3)nc2n(C2CCCC2)c1=O + CC(C)NCC(C(=O)N1CCN(c2ncnc3c2C(C)CC3O)CC1)c1ccc(Cl)cc1,IC50,second compound 0.1 µM,> 300 nM
same,IC50,second compound 0.316 µM,> 300 nM
same,IC50,second compound 1 µM,20 nM
same,IC50,second compound 3.16 µM,11.1 nM
same,IC50,second compound 10 µM,< 0.949 nM
same,"viability, T/C","second compound 0.1 µM, first compound 0.000949 µM",96.7%
same,"viability, T/C","second compound 0.1 µM, first compound 0.003 µM",86.1%
same,"viability, T/C","second compound 0.1 µM, first compound 0.00949 µM",83.3%
same,"viability, T/C","second compound 0.1 µM, first compound 0.03 µM",71.4%
same,"viability, T/C","second compound 0.1 µM, first compound 0.0949 µM",64.2%
same,"viability, T/C","second compound 0.1 µM, first compound 0.3 µM",60.1%
same,"viability, T/C","second compound 0.316 µM, first compound 0.000949 µM",92.7%
same,"viability, T/C","second compound 0.316 µM, first compound 0.003 µM",79.7%
same,"viability, T/C","second compound 0.316 µM, first compound 0.00949 µM",70.3%
same,"viability, T/C","second compound 0.316 µM, first compound 0.03 µM",62.3%
same,"viability, T/C","second compound 0.316 µM, first compound 0.0949 µM",59.4%
same,"viability, T/C","second compound 0.316 µM, first compound 0.3 µM",49.5%
same,"viability, T/C","second compound 1 µM, first compound 0.000949 µM",62.7%
same,"viability, T/C","second compound 1 µM, first compound 0.003 µM",67.7%
same,"viability, T/C","second compound 1 µM, first compound 0.00949 µM",56.1%
same,"viability, T/C","second compound 1 µM, first compound 0.03 µM",48.6%
same,"viability, T/C","second compound 1 µM, first compound 0.0949 µM",43%
same,"viability, T/C","second compound 1 µM, first compound 0.3 µM",47.2%
same,"viability, T/C","second compound 3.16 µM, first compound 0.000949 µM",55.6%
same,"viability, T/C","second compound 3.16 µM, first compound 0.003 µM",58.8%
same,"viability, T/C","second compound 3.16 µM, first compound 0.00949 µM",52.8%
same,"viability, T/C","second compound 3.16 µM, first compound 0.03 µM",41.2%
same,"viability, T/C","second compound 3.16 µM, first compound 0.0949 µM",42.3%
same,"viability, T/C","second compound 3.16 µM, first compound 0.3 µM",38.8%
same,"viability, T/C","second compound 10 µM, first compound 0.000949 µM",48.7%
same,"viability, T/C","second compound 10 µM, first compound 0.003 µM",47.5%
same,"viability, T/C","second compound 10 µM, first compound 0.00949 µM",41.7%
same,"viability, T/C","second compound 10 µM, first compound 0.03 µM",35.5%
same,"viability, T/C","second compound 10 µM, first compound 0.0949 µM",35.6%
same,"viability, T/C","second compound 10 µM, first compound 0.3 µM",37.3%
